For 13 compounds, inhibition results are on record in US20120121540A1 (priority 2007, published 2012).

A short description of the assay: HCV replicon assay (luciferase reporter, ET cell line). The format is cell-based. The following applies: Hepatitis C virus, HCV replicon luciferase activity in ET cells. In a few lines: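 ET cells carry a stable luciferase-ubiquitin-neo/NS3-5B subgenomic HCV replicon with adaptive mutations. Compounds (0.1 nM to […], 0.5% DMSO) were added 24 h after plating, and luciferase was read 48-72 h later. EC50 came from 10-point 2-fold dilutions fitted to a Hill equation; TC50 was measured in parallel by WST-1.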
On to `O=C(c1nc2c(C(F)(F)F)cc(-c3cn[nH]c3)cn2c1Cl)N1CCC(c2ccccc2F)CC1` [Compound 606, [3-Chloro-6-(1H-pyrazol-4-yl)-8-trifluoromethyl-imidaz [1,2-a]pyridin-2-yl]-[4-(2-fluoro-phenyl)-piperidin-1-yl]-methanone], for which testing at 10 µM gave an inhibition of 87.9%. Next, `O=C(Cc1cccs1)NCc1cn2cc(-c3ccoc3)cc(C(F)(F)F)c2n1` [Compound 388, N-(6-Furan-3-yl-8-trifluoromethyl-imidazo[1,2-a]pyridin-2-ylmethyl)-2-thiophen-2-yl-acetamide]: 97.2%; `O=C(c1nc2c(C(F)(F)F)cc(-c3ccoc3)cn2c1Cl)N1CCN(c2cnccn2)CC1` [Compound 537]: 61%; `O=C(Cc1c(C(=O)N2CCC(c3ccc(F)cc3)C2)nc2c(C(F)(F)F)cc(-c3ccoc3)cn12)NC1CC1` (stereo not shown) [Compound 242, N-Cyclopropyl-2-{2-[3-(4-fluoro-phenyl)-pyrrolidine-1-carbonyl]-6-furan-3-yl-8-trifluoromethyl-imidazo[1,2-a]pyridin-3-yl}-acetamide]: 93%. The value for `CC(=O)Nc1nc(-c2cc(C(F)(F)F)c3nc(C(=O)N4CCC(c5cccc(F)c5)C4)c(Cl)n3c2)cs1` (stereo not shown) [Compound 644, N-(4-{3-Chloro-2-[3-(3-fluoro-phenyl)-pyrrolidine-1-carbonyl]-8-trifluoromethyl-imidazo[1,2-a]pyridin-6-yl}-thiazol-2-yl)-acetamide] was 59.6%.

`Cc1noc(C2CCN(C(=O)c3nc4c(C(F)(F)F)cc(-c5ccoc5)cn4c3Cl)C2)n1` (stereo not shown) [Compound 475, (3-Chloro-6-furan-3-yl-8-trifluoromethyl-imidaz[1,2-a]pyridin-2-yl)-[3-(3-methyl-[1,2,4]oxadiazol-5-yl)-pyrrolidin-1-yl]-methanone] yielded an inhibition at 10 µM of 93%. The value for `CC(C)S(=O)(=O)NC1CN(C(=O)c2nc3c(C(F)(F)F)cc(-c4ccoc4)cn3c2Cl)C1` [Compound 497, Propane-2-sulfonic acid [1-(3-chloro-6-furan-3-yl-8-trifluoromethyl-imidazo[1,2-a]pyridine-2-carbonyl)-azetidin-3-yl]-amide] was 97.8%.

`O=C(c1nc2c(C(F)(F)F)cc(-c3ccoc3)cn2c1Cl)N1CC=C(c2cncs2)CC1` [Compound 568] had an inhibition at 10 µM of 98.8%. `O=C(NCCc1cccs1)c1cc2cc(-c3ccccc3)cc(I)n2n1` [Compound 125, 7-Iodo-5-phenyl-pyrazolo[1,5-a]pyridine-2-carboxylic Acid (2-thiophen-2-yl-ethyl)-amide] showed an inhibition at 10 µM of 48%. The value for `O=C(c1nc2c(C(F)(F)F)cc(-c3ccoc3)cn2c1Cl)N1CCCCC1c1cccc(F)c1` (stereo not shown) [Compound 545, (3-Chloro-6-furan-3-yl-8-trifluoromethyl-imidazo[1,2-a]pyridin-2-yl)-[2-(3-fluoro-phenyl)-piperidin-1-yl)-methanone] was 70.2%; that for `Nc1nc(-c2cc(C(F)(F)F)c3nc(C(=O)N4CCC(c5cccc(F)c5)C4)c(Cl)n3c2)cs1` (stereo not shown) [Compound 643, 2[6-(2-Amino-thiazol-4-yl)-3-chloro-8-trifluoromethyl-imidazo[1,2-a]pyridin-2-yl]-[3-(3-fluoro-phenyl)-pyrrolidin-1-yl]-methanone] was 74.5%; that for `O=C(c1cn2cc(-c3cn[nH]c3)cc(C(F)(F)F)c2n1)N1CCC(c2cccc(F)c2)C1` (stereo not shown) [Compound 378, [3-(3-Fluoro-phenyl)-pyrrolidin-1-yl]-[6-(1H-pyrazol-4-yl)-8-trifluoromethyl-imidazo[1,2-a]pyridin-2-yl]-methanone] was 86.4%. Regarding `O=C(NC1CN(C(=O)Cc2ccccc2)C1)c1nc2c(C(F)(F)F)cc(-c3ccoc3)cn2c1Cl` [Compound 514, 3-Chloro-6-furan-3-yl-8-trifluoromethyl-imidazo[1,2-a]pyridine-2-carboxylic Acid (1-phenylacetyl-azetidin-3-yl)-amide], 10 µM produced 6.6% inhibition.
